Results taken from ChEMBL document CHEMBL3991601, “The target landscape of clinical kinase drugs” (Science, 2017).
The source made the active and inactive calls. Cut-off read from the data, not from the text of the source, for most assays here: actives have a measured Kd and inactives only a lower limit.

How the values were obtained:
[1] = target: Dual specificity mitogen-activated protein kinase kinase 1 (Homo sapiens, UniProt Q02750)
Activin receptor type-1 = target: T1, Activin receptor type-1 (Homo sapiens, UniProt Q04771)
T1 sequence (Q04771 whole entry): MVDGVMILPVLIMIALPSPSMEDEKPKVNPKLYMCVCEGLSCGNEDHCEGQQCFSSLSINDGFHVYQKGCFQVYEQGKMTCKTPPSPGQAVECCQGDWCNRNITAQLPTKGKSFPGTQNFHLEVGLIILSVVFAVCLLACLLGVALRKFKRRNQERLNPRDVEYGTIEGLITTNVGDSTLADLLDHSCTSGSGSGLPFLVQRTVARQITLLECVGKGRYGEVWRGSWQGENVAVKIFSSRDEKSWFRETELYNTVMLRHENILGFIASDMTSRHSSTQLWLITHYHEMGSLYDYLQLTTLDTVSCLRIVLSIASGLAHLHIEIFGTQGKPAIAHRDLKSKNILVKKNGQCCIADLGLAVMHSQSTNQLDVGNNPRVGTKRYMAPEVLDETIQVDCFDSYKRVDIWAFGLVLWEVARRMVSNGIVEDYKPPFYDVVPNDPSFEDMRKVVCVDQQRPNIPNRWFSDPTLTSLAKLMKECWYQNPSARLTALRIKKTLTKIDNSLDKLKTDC

[2] = target: T2, AarF domain-containing protein kinase 1 (Homo sapiens, UniProt Q86TW2)
T2 sequence (Q86TW2 whole entry): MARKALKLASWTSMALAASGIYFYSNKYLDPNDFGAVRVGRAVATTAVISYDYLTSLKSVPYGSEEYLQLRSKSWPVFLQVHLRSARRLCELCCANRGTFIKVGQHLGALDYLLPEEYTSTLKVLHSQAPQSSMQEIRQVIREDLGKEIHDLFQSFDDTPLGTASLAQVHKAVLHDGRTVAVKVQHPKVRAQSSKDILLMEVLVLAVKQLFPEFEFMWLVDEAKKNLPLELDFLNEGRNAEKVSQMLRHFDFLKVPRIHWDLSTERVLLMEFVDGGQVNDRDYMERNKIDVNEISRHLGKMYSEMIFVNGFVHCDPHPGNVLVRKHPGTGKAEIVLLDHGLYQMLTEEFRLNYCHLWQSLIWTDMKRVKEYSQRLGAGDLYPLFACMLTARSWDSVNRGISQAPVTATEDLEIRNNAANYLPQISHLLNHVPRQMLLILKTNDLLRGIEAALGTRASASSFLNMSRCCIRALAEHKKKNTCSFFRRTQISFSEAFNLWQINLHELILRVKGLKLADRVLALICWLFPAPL

[3] = target: Mitogen-activated protein kinase kinase kinase kinase 4 (Homo sapiens, UniProt O95819)
Chain of Mitogen-activated protein kinase kinase kinase kinase 4 (O95819 whole entry): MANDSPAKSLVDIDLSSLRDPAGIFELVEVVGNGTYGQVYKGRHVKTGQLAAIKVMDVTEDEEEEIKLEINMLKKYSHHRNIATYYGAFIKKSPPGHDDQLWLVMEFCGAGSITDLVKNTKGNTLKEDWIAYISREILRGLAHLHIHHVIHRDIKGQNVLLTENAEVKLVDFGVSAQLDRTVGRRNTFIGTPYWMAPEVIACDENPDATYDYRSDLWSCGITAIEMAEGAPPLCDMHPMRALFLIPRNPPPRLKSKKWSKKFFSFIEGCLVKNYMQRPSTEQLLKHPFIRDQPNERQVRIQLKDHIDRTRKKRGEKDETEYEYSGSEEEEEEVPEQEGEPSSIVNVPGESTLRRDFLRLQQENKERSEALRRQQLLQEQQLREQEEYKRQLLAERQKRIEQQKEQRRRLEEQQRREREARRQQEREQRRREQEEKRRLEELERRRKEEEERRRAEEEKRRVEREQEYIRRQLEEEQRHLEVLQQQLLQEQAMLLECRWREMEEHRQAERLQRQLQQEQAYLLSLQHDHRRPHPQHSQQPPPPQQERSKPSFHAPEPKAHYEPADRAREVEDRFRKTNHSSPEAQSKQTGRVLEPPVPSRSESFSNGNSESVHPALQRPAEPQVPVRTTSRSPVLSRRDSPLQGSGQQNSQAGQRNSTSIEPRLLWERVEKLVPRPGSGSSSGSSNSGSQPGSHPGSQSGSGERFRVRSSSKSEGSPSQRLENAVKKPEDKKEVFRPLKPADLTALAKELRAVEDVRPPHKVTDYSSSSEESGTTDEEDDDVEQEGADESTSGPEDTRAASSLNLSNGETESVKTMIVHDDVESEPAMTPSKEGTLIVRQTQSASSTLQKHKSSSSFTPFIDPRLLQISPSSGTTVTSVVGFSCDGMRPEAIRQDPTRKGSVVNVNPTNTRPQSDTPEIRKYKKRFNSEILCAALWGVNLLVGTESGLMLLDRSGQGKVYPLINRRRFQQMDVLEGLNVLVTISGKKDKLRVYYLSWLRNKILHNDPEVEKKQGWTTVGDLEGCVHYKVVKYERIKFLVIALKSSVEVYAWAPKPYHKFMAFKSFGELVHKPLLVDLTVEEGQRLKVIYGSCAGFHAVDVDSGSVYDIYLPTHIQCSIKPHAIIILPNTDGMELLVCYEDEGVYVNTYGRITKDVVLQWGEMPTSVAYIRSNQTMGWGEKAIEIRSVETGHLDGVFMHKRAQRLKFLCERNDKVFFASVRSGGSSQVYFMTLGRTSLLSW

[4] = target: T3, Ras-related protein Rab-27A (Homo sapiens, UniProt P51159)
T3 sequence (P51159 whole entry): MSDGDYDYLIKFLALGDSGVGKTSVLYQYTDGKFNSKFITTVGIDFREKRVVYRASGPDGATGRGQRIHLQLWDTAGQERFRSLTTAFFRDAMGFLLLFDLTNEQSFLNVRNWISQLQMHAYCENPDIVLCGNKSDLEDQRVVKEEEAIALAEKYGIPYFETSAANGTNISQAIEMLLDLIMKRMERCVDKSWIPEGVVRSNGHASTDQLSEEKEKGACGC

[5] = target: Adenylate kinase 2, mitochondrial (Homo sapiens, UniProt P54819)
[6] = target: T4, Mitogen-activated protein kinase kinase kinase kinase 2 (Homo sapiens, UniProt Q12851)
T4 sequence (Q12851 whole entry): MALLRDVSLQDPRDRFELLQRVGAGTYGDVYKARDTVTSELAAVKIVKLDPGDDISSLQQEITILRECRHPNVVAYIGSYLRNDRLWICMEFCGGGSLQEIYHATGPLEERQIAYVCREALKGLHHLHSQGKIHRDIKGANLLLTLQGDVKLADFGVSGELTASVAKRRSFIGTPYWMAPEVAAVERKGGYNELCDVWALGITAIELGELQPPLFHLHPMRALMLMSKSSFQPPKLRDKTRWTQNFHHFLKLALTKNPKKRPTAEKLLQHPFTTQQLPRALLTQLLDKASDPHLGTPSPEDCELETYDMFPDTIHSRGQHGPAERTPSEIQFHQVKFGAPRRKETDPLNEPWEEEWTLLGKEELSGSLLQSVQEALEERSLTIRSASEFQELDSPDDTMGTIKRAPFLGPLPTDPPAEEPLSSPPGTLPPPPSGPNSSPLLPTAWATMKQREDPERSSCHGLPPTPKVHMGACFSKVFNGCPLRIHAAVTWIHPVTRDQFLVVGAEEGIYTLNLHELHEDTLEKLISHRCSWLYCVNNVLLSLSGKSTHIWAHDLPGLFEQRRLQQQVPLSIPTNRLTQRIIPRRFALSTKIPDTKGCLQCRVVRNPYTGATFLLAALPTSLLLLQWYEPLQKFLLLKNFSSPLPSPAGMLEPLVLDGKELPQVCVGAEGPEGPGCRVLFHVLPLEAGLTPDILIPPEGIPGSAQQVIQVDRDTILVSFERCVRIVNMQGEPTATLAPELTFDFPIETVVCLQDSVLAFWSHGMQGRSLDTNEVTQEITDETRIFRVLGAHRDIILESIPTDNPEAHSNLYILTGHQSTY

ADP/ATP translocase 2 = target: T5, ADP/ATP translocase 2 (Homo sapiens, UniProt P05141)
T5 sequence (P05141 whole entry): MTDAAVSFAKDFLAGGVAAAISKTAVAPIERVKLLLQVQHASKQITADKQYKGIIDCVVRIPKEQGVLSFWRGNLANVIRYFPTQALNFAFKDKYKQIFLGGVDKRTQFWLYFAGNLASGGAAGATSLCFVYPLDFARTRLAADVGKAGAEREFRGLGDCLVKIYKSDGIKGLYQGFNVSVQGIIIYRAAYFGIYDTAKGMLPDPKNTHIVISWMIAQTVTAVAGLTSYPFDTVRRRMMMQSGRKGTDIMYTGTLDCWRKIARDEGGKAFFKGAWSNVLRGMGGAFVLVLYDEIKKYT

[7] = target: Macrophage-stimulating protein receptor (Homo sapiens, UniProt Q04912)
Chain of Macrophage-stimulating protein receptor (Q04912 25-304 limits assumed): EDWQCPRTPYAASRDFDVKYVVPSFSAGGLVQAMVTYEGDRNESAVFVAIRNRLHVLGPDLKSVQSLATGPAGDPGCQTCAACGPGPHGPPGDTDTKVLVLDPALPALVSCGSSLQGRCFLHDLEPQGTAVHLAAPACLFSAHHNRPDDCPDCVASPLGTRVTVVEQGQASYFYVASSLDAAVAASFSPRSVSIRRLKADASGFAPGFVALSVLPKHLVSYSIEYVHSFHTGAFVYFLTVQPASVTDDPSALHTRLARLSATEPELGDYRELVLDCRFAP
Chain of Macrophage-stimulating protein receptor (Q04912 310-1400 limits assumed): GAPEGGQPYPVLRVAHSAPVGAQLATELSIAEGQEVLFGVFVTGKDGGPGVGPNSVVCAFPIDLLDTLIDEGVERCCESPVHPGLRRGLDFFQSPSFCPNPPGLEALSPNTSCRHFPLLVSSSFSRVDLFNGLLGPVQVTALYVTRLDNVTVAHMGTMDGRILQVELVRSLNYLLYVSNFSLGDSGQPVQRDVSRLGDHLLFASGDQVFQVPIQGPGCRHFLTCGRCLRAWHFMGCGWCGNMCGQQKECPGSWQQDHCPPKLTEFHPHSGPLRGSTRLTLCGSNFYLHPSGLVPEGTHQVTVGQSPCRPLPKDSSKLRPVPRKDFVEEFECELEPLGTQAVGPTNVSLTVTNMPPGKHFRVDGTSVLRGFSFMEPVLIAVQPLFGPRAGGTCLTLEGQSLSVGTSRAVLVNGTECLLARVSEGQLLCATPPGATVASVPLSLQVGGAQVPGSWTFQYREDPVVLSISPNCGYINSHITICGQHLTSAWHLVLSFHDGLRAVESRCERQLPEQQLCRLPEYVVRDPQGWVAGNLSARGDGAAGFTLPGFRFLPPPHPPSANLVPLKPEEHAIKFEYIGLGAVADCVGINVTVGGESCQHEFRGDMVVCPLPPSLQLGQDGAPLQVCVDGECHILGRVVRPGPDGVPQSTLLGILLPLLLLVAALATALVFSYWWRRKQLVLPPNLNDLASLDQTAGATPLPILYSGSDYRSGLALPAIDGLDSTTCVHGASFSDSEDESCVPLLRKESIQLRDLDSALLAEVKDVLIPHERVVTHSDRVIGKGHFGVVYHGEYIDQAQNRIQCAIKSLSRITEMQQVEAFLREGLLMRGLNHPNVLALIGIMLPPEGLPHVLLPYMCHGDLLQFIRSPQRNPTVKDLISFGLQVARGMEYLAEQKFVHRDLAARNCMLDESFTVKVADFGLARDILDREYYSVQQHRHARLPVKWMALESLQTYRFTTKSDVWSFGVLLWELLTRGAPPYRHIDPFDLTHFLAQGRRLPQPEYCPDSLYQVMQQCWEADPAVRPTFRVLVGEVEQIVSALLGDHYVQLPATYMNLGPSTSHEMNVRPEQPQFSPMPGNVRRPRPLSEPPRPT

[8] = target: Putative heat shock protein HSP 90-beta 2 (Homo sapiens, UniProt Q58FF8)
Chain of Putative heat shock protein HSP 90-beta 2 (Q58FF8 whole entry): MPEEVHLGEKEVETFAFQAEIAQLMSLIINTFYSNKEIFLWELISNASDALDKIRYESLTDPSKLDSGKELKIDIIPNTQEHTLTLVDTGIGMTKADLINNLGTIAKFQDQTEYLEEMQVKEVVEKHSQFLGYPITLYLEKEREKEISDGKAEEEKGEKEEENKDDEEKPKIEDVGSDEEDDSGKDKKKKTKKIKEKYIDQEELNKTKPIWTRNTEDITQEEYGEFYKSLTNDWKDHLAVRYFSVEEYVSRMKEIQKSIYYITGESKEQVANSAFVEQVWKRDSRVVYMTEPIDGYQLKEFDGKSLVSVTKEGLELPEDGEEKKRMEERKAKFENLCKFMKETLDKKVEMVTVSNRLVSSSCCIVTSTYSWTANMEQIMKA

[9] = target: Guanine nucleotide-binding protein G(i) subunit alpha-2 (Homo sapiens, UniProt P04899)
Chain of Guanine nucleotide-binding protein G(i) subunit alpha-2 (P04899 whole entry): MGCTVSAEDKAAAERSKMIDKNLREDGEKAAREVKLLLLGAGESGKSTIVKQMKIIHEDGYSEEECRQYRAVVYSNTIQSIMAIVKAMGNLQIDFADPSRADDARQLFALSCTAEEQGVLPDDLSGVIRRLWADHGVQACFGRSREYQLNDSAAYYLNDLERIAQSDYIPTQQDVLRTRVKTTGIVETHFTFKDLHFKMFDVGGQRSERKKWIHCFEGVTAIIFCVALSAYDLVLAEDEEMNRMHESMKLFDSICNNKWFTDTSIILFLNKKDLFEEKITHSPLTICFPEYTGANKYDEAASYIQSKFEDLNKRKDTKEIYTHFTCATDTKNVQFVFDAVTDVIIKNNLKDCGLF
Note: in the data inactive means no Kd found up to 30 µM.

Chain of Dual specificity mitogen-activated protein kinase kinase 1 (Q02750 whole entry): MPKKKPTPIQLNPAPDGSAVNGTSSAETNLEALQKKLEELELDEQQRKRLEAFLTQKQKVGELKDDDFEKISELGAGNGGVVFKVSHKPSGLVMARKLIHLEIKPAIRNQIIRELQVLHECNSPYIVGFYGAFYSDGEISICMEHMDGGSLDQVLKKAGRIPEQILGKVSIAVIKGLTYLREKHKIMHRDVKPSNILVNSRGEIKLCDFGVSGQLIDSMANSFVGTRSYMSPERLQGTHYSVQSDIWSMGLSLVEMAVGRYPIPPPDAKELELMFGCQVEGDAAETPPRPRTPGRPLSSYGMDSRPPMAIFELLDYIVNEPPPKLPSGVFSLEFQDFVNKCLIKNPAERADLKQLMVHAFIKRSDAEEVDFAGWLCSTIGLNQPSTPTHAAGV

SMILES | Kd [1] | Kd (Activin receptor type-1) | Kd [2] | Kd [3] | Kd [4] | Kd [5] | Kd [6] | Kd (ADP/ATP translocase 2) | Kd [7] | Kd [8] | Kd [9]
Cc1cnc(NC(=O)Nc2cc(Br)c(C)cc2OC[C@@H]2CNCCO2)cn1 [RABUSERTIB] | > 30 µM (inactive) | > 30 µM (inactive) | > 30 µM (inactive) | > 30 µM (inactive) | > 30 µM (inactive) | > 30 µM (inactive) | > 30 µM (inactive) | > 30 µM (inactive) | > 30 µM (inactive) | > 30 µM (inactive) | > 30 µM (inactive)
O=c1[nH]ccc2cc(OC3CCNCC3)ccc12 [SAR-407899 FREE BASE] | > 30 µM (inactive) | > 30 µM (inactive) | > 30 µM (inactive) | > 30 µM (inactive) | > 30 µM (inactive) | > 30 µM (inactive) | > 30 µM (inactive) | > 30 µM (inactive) | > 30 µM (inactive) | > 30 µM (inactive) | > 30 µM (inactive)
CN1CCN(CCOc2cc(OC3CCOCC3)c3c(Nc4c(Cl)ccc5c4OCO5)ncnc3c2)CC1 [SARACATINIB] | > 30 µM (inactive) | 0.004 µM (active) | > 30 µM (inactive) | 1.12 µM (active) | > 30 µM (inactive) | > 30 µM (inactive) | > 30 µM (inactive) | > 30 µM (inactive) | > 30 µM (inactive) | > 30 µM (inactive) | > 30 µM (inactive)
O=C1NC(=O)[C@@H](c2cn3c4c(cccc24)CCC3)[C@@H]1c1c[nH]c2ccccc12 [TIVANTINIB] | > 30 µM (inactive) | > 30 µM (inactive) | > 30 µM (inactive) | > 30 µM (inactive) | > 30 µM (inactive) | > 30 µM (inactive) | > 30 µM (inactive) | > 30 µM (inactive) | > 30 µM (inactive) | > 30 µM (inactive) | > 30 µM (inactive)
C[C@@H](NC(=O)c1ncnc(N)c1Cl)c1ncc(C(=O)Nc2cc(C(F)(F)F)c(Cl)cn2)s1 [TOVORAFENIB] | > 30 µM (inactive) | > 30 µM (inactive) | > 30 µM (inactive) | > 30 µM (inactive) | > 30 µM (inactive) | > 30 µM (inactive) | > 30 µM (inactive) | > 30 µM (inactive) | > 30 µM (inactive) | > 30 µM (inactive) | > 30 µM (inactive)
Cn1ncc(Cl)c1-c1cc(C(=O)N[C@H](CN)Cc2ccc(F)c(F)c2)oc1Cl [UPROSERTIB] | > 30 µM (inactive) | > 30 µM (inactive) | > 30 µM (inactive) | > 30 µM (inactive) | > 30 µM (inactive) | > 30 µM (inactive) | > 30 µM (inactive) | > 30 µM (inactive) | > 30 µM (inactive) | > 30 µM (inactive) | > 30 µM (inactive)
CN1C/C=C/CCOc2cccc(c2)-c2ccnc(n2)Nc2cccc(c2)C1 [ZOTIRACICLIB] | > 30 µM (inactive) | > 30 µM (inactive) | 0.023 µM | > 30 µM (inactive) | > 30 µM (inactive) | > 30 µM (inactive) | 1.36 µM (active) | > 30 µM (inactive) | > 30 µM (inactive) | > 30 µM (inactive) | > 30 µM (inactive)

The next lines start with the values.

Kd [1] | Kd (Activin receptor type-1) | Kd [2] | Kd [3] | Kd [4] | Kd [5] | Kd [6] | Kd (ADP/ATP translocase 2) | Kd [7] | Kd [8] | Kd [9] | SMILES
> 30 µM (inactive) | > 30 µM (inactive) | > 30 µM (inactive) | > 30 µM (inactive) | > 30 µM (inactive) | > 30 µM (inactive) | > 30 µM (inactive) | > 30 µM (inactive) | > 30 µM (inactive) | > 30 µM (inactive) | > 30 µM (inactive) | Cc1nc(Nc2n[nH]c3c2CN(C(=O)N[C@H](CN(C)C)c2ccccc2)C3(C)C)c2sccc2n1 [PF-03758309]
> 30 µM (inactive) | 0.249 µM (active) | > 30 µM (inactive) | > 30 µM (inactive) | > 30 µM (inactive) | > 30 µM (inactive) | > 30 µM (inactive) | > 30 µM (inactive) | > 30 µM (inactive) | > 30 µM (inactive) | > 30 µM (inactive) | CCS(=O)(=O)c1cccc(-c2cc(C(=O)NC3CCN(C)CC3)c(C)c3[nH]c4ncc(C)cc4c23)c1 [TAK-901]
> 30 µM (inactive) | > 30 µM (inactive) | > 30 µM (inactive) | > 30 µM (inactive) | > 30 µM (inactive) | > 30 µM (inactive) | > 30 µM (inactive) | > 30 µM (inactive) | > 30 µM (inactive) | > 30 µM (inactive) | > 30 µM (inactive) | CO[C@H]1C[C@@H]2CC[C@@H](C)[C@@](O)(O2)C(=O)C(=O)N2CCCC[C@H]2C(=O)O[C@H]([C@H](C)C[C@@H]2CC[C@@H](OC(=O)C(C)(CO)CO)[C@H](OC)C2)CC(=O)[C@H](C)/C=C(\C)[C@@H](O)[C@@H](OC)C(=O)[C@H](C)C[C@H](C)/C=C/C=C/C=C/1C [TEMSIROLIMUS]
> 30 µM (inactive) | > 30 µM (inactive) | > 30 µM (inactive) | 1.91 µM (active) | > 30 µM (inactive) | > 30 µM (inactive) | > 30 µM (inactive) | > 30 µM (inactive) | > 30 µM (inactive) | > 30 µM (inactive) | > 30 µM (inactive) | COc1cc2c(Nc3ccc(Cl)c(Cl)c3F)ncnc2cc1OC[C@@H]1C[C@@H]2CN(C)C[C@@H]2C1 [TESEVATINIB]
